In ChEMBL document CHEMBL5316338, “Discovery of Novel PTP1B Inhibitors with Once-Weekly Therapeutic Potential for Type 2 Diabetes: Design, Synthesis, and In Vitro and In Vivo Investigations of BimBH3 Peptide Analogues” (J Med Chem, 2023):
Calls of active or inactive are those of the source. The rule behind the calls is not given here. Square brackets hold non-standard residues; d marks the D form. Peptide text beside a SMILES is read from it. * marks the point of attachment. ξ: configuration not given here. C18 diacid = O=C(O)CCCCCCCCCCCCCCCCC(=O)*; Myristoyl = CCCCCCCCCCCCCC(=O)*; ξR = N=C(N)NCCCC(N)C(=O)O

Columns and labels:
[1] = Stability of compound assessed as Pepsin (unknown origin) mediated compound degradation by measuring fold change of half-life by HPLC analysis relative to BimBH312-mer peptide; format: ADME; conditions: human
Mus musculus [2] = experiment: Antidiabetic activity against C57BL/Ks db/db mouse assessed as redcution in fasting blood glucose level at 1 umol/kg, sc administered once a week and measured on day 8 by glucometer analysis (reference value: 27.7 +/- 3.7 […]); format: functional; conditions: dose 1 µmol/kg, time 8 day
Mus musculus [3] = experiment: Antidiabetic activity against C57BL/Ks db/db mouse assessed as redcution in fasting blood glucose level at 1 umol/kg, sc administered once a week and measured on day 26 by glucometer analysis (reference value: 31.4 +/- 2.2 […]); format: functional; conditions: dose 1 µmol/kg, time 26 day
[4] = target: T1, Tyrosine-protein phosphatase non-receptor type 1 (Homo sapiens, UniProt P18031); experiment: Inhibition of N-terminal His tagged recombinant human PTP1B expressed in Escherichia coli using pNPP as substrate assessed as substrate hydrolysis
T1 sequence (P18031 whole entry): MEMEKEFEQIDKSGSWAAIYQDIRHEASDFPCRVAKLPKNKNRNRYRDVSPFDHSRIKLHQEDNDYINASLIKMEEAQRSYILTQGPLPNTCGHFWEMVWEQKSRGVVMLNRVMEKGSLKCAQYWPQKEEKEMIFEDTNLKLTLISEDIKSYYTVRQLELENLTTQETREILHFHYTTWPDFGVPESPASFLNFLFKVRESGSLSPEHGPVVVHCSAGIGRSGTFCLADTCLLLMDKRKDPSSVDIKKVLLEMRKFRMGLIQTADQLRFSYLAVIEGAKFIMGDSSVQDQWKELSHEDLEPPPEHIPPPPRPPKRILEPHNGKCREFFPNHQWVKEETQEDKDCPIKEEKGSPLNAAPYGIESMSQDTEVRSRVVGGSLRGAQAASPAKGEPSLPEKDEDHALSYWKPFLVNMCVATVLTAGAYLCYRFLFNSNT

[5] = Toxicity in C57BL/Ks db/db mouse assessed as signs of distress at 1 uM/kg, sc administered for 2 weeks; format: organism-based; conditions: in vivo, 336 h
Mus musculus [6] = experiment: Antidiabetic activity against C57BL/Ks db/db mouse assessed as reduction in fasting blood glucose level at 1 uM/kg, sc administered once every 2 days for 2 weeks by glucometer analysis; format: functional, organism-based
Pepsin = experiment: Stability of compound assessed as Pepsin (unknown origin) mediated compound degradation by measuring half-life by HPLC analysis; format: ADME; conditions: human
Chymotrypsin = Chymotrypsin (Homo sapiens, UniProt Q99895+P17538+P40313+Q6GPI1); experiment: Stability of compound assessed as chymotrypsin (unknown origin) mediated compound degradation by measuring fold change of half-life by RP-HPLC analysis relative to BimBH312-mer peptide; format: ADME, protein assay
Homo sapiens = organism: Homo sapiens; experiment: Selectivity index, ratio of IC50 for inhibition of recombinant human TC-PTP (1 to 314 residues) expressed in baculovirus infected insect cells to IC50 for inhibition of N-terminal His-tagged recombinant human PTP1B expressed in Escherichia coli
[7] = target: T2, Tyrosine-protein phosphatase non-receptor type 2 (Homo sapiens, UniProt P17706); experiment: Inhibition of recombinant human TC-PTP (1 to 314 residues) expressed in baculovirus infected insect cells using pNPP as substrate assessed as substrate hydrolysis; design: species or system Insect cell
T2 sequence (P17706 whole entry): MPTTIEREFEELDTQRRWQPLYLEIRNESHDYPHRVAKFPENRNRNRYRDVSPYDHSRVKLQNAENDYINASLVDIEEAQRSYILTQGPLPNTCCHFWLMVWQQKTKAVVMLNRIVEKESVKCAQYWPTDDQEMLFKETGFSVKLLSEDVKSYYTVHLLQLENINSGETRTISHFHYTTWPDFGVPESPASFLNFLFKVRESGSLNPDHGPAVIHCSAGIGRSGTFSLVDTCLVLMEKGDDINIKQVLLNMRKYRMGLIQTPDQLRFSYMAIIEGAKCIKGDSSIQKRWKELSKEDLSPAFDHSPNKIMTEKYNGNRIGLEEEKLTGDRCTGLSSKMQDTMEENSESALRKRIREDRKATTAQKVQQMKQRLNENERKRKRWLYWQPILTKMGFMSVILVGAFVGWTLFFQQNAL

carboxypeptidase A = target: T3, carboxypeptidase A (Homo sapiens, UniProt P15085); experiment: Stability of compound assessed as carboxypeptidase A (unknown origin) mediated compound degradation by measuring half-life by RP-HPLC analysis; format: ADME
T3 sequence (P15085 whole entry): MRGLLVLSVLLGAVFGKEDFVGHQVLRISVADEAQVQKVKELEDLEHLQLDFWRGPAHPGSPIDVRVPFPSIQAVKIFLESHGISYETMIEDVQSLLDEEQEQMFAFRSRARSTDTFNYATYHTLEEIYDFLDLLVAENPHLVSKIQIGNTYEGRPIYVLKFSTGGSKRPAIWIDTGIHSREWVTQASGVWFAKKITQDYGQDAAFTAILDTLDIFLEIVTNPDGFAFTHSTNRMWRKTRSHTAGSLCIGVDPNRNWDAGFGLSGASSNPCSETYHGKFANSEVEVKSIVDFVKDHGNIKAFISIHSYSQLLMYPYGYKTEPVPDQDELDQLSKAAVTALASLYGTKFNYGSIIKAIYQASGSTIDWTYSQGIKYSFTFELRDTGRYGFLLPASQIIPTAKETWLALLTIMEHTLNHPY

Mus musculus [8] = experiment: Antidiabetic activity against C57BL/Ks db/db mouse assessed as reduction in fasting blood glucose level at 1 uM/kg, sc administered once every 3 days for 2 weeks by glucometer analysis; format: functional, organism-based
Mus musculus [9] = experiment: Antidiabetic activity against C57BL/Ks db/db mouse assessed as reduction in fasting blood glucose level at 1 uM/kg, sc administered once daily and measured on day 8 by glucometer analysis; format: functional, organism-based; conditions: time 8.0 day

fold change (FC) [1] | IC50 [4] | half-life (Pepsin) | fold change (FC) (Chymotrypsin) | IC50 [7] | half-life (carboxypeptidase A) | SMILES | Fasting blood glucose level (Mus musculus [2]) | Fasting blood glucose level (Mus musculus [3]) | Activity [5] | Activity (Mus musculus [6]) | Ratio IC50 (Homo sapiens) | Activity (Mus musculus [8]) | Activity (Mus musculus [9])
29.5 | 263 nM | 0.65 h | 68.8 | > 50000 nM | 1.02 h | CCCCCCCCCCCCCC(=O)N[C@H](C(=O)N[C@@H](C)C(=O)N[C@@H](CCC(N)=O)C(=O)N[C@@H](CCC(=O)O)C(=O)N[C@@H](CC(C)C)C(=O)N[C@@H](CCCNC(=N)N)C(=O)NC(CCCNC(=N)N)C(=O)N[C@H](C(=O)NCC(=O)N[C@@H](CC(=O)O)C(=O)N[C@@H](CCC(=O)O)C(=O)N[C@@H](Cc1ccccc1)C(=O)O)[C@@H](C)CC)[C@@H](C)CC (some centres undefined) (Myristoyl-IAQELR[ξR]IGDEF-OH) | 10.3 mmol/L | 12.9 mmol/L | Non-Toxic | Active | > 190 | – | –
307.7 | 385 nM | 6.77 h | 4.7 | > 50000 nM | 4.51 h | CC[C@H](C)[C@H](NC(=O)CCCCCCCCCCCCCCCCC(=O)O)C(=O)N[C@@H](C)C(=O)N[C@@H](CCC(N)=O)C(=O)N[C@@H](CCC(=O)O)C(=O)N[C@@H](CC(C)C)C(=O)N[C@@H](CCCNC(=N)N)C(=O)NC(CCCNC(=N)N)C(=O)N[C@H](C(=O)NCC(=O)N[C@@H](CC(=O)O)C(=O)N[C@@H](CCC(=O)O)C(=O)N[C@@H](Cc1ccccc1)C(=O)O)[C@@H](C)CC (some centres undefined) ({C18 diacid}-IAQELR[ξR]IGDEF-OH) | 11.1 mmol/L | 22.9 mmol/L | Non-Toxic | Active | > 130 | Active | Active
